The subject of one test is human LINE-1. Description: Human LINE-1 retrotransposition assay (HeLa cell-based dual-luciferase reporter). The settings on record: Homo sapiens, HeLa, 72 h, Human LINE-1 activity inhibition; HeLa cells, reporter plasmid pYX017, Firefly/Renilla, 72 h incubation. The protocol: Representative Compounds of the Disclosure were tested for inhibition of retrotransposition activity of human LINE-1 in HeLa cells according to the following procedure.
HeLa cervical cancer cells were cultivated at 37° C. in a humidified 5% CO2 incubator in Dulbecco's Modified Eagle's Medium (DMEM)—high glucose, with 4500 mg/L glucose, L-glutamine, sodium pyruvate and sodium bicarbonate (Sigma), supplemented with 10% of heat inactivated fetal bovine serum (Thermo Fisher).
Assays were performed using reporter plasmid pYX017 as described (Xie, et al., 2011) with several modifications. The reporter assay was performed in 96-well white optical bottom plates. HeLa cells were seeded in wells 24 h prior to transfection and compound treatment so that cells were approximately 30% confluent on the day of transfection. Different cell plating densities were tested and a density of 2×10^3 cells was determined to be optimal.
Compounds were resuspended in DMSO. Serial dilutions (1:3) were prepared in DMSO. Medium containing different concentrations of the compounds were prepared by adding 2 μl of the compound dilution to 1 ml of the culture medium. The final concentration of DMSO in the medium was 0.2%.
FuGENE® HD transfection reagent (Promega, E2311, Lot 382574 and Lot 397842) was used to transfect the plasmids into the cells. The transfection reagent: DNA mixture was prepared in OpiMEM (Thermo Fisher) according to manufacturer's instructions. Different ratios of transfection reagent to DNA were tested and a ratio of 3:1 was determined to be optimal. Culture medium was removed from the cells and discarded. The transfection reagent: DNA mixture (5 μl) was mixed with the compound containing medium (100 μl/well) and this was added onto the cells of each well. Cells were incubated at 37° C./5% CO2 for different incubation time. A 72 h incubation time was determined to be optimal.
Luciferase reporter activity was quantified with the Dual-Luciferase® Reporter Assay System (Promega) according to manufacturer's instructions for multiwell plates except that cells were lysed directly on the multiwell plate with 30 μl of the passive lysis buffer (PLB) for 20 min at room temperature, with gentle shaking to ensure complete cell lysis.
Firefly and Renilla luciferase signals were measured using a SpectraMax i3× Multi-Mode Microplate Reader. Integration times of 100 ms and 10 ms were used to measure the Firefly and Renilla signals respectively. Relative L1 activity is calculated as Firefly/Renilla*1000 or Firefly/Renilla*10,000. Dose response inhibition data were fit to a four parameter logistic equation using non-linear regression (using Graphpad Prism 8), to determine IC50 values for each inhibitor.
(In general: A reporter such as luciferase makes a cellular process visible.)
The IC50 is the concentration needed to halve the response being measured. Higher therefore signals lower potency. Take `C#C[C@@]1(CO)C=C[C@H](n2cnc3c(N)ncnc32)O1` [compound 14, ((2R,5R)-5-(6-amino-9H-purin-9-yl)-2-ethynyl-2,5-dihydrofuran-2-yl)methanol]: the IC50 stood at 50 µM.

For the compound `CC[C@]1(CO)O[C@@H](n2cc(Br)c(N)nc2=O)C[C@@H]1O` [compound 105, 4-amino-5-bromo-1-((2R,4S,5R)-5-ethyl-4-hydroxy-5-(hydroxymethyl)tetrahydrofuran-2-yl)pyrimidin-2(1H)-one], it took 0.15 µM to reach half-maximal inhibition (IC50). This IC50 is about 330-fold lower than that of the compound before.

In turn, `C=C[C@]1(CO)O[C@@H](n2cnc3c(NC4CC4)nc(N)nc32)C[C@@H]1O` [Cpd. No. 4, (2R,3S,5R)-5-(2-amino-6-(cyclopropylamino)-9H-purin-9-yl)-2-(hydroxymethyl)-2-vinyltetrahydrofuran-3-ol] came in with an IC50 of 0.401 µM. This IC50 lies about 2.7-fold higher than the previous one.

`CC[C@]1(CO)O[C@@H](n2cnc3c(NC4CC4)nc(N)nc32)C[C@@H]1O` [Cpd. No. 97, (2R,3S,5R)-5-(2-amino-6-(cyclopropylamino)-9H-purin-9-yl)-2-ethyl-2-(hydroxymethyl)tetrahydrofuran-3-ol] showed a 50% inhibitory concentration (IC50) of 0.946 µM.

On to `C#C[C@@]1(CO)C=C[C@H](n2cc(SC(F)(F)F)c(=O)[nH]c2=O)O1` [compound 73, 1-((2R,5R)-5-ethynyl-5-(hydroxymethyl)-2,5-dihydrofuran-2-yl)-5-((trifluoromethyl)thio)pyrimidine-2,4(1H,3H)-dione], for which the IC50 was above 50 µM.

In turn, `[2H]C([2H])([2H])c1cn([C@H]2C=C[C@@](C#C)(CO)O2)c(=O)[nH]c1=O` [compound 37, 1-((2R,5R)-5-ethynyl-5-(hydroxymethyl)-2,5-dihydrofuran-2-yl)-5-(methyl-d3)pyrimidine-2,4(1H,3H)-dione] yielded an IC50 of 0.067 µM.

Consider `C#C[C@]1(CO)O[C@H](n2cnc3c(=O)[nH]c(N)nc32)C[C@@H]1O` [compound 49, 2-amino-9-((2S,48,5R)-5-ethynyl-4-hydroxy-5-(hydroxymethyl)tetrahydrofuran-2-yl)-1,9-dihydro-6H-purin-6-one], for which the IC50 stood at 0.052 µM.

Compound `Cc1cn([C@H]2C=C[C@@](C)(CO)O2)c(=O)[nH]c1=O` [compound 21, 1-((2R,5S)-5-(hydroxymethyl)-5-methyl-2,5-dihydrofuran-2-yl)-5-methylpyrimidine-2,4(1H,3H)-dione] displayed an IC50 above 50 µM.

`CC#C[C@@]1(CO)O[C@@H](n2cc(C)c(=O)[nH]c2=O)C[C@H]1O` [compound 24, 1-((2R,4R,5S)-4-hydroxy-5-(hydroxymethyl)-5-(prop-1-yn-1-yl)tetrahydrofuran-2-yl)-5-methylpyrimidine-2,4(1H,3H)-dione] had an IC50 above 50 µM.

With `Nc1nc(=O)n([C@H]2C[C@@H]3OC=C[C@]3(CO)O2)cc1F` [compound 139, 4-amino-5-fluoro-1-((2R,3aS,6aR)-6a-(hydroxymethyl)-2,3,3a,6a-tetrahydrofuro[3,2-b]furan-2-yl)pyrimidin-2(1H)-one], the IC50 was 3.17 µM.

As for `Cc1cn([C@@H]2C[C@@H](O)[C@H](CO)O2)c(=O)[nH]c1=O` [compound 95, 1-((2S,4R,5S)-4-hydroxy-5-(hydroxymethyl)tetrahydrofuran-2-yl)-5-methylpyrimidine-2,4(1H,3H)-dione], the IC50 is above 50 µM.

The compound `CC[C@]1(CO)O[C@H](n2ccc(=O)[nH]c2=O)C[C@@H]1O` [Cpd. No. 20, 1-((2S,4S,5R)-5-ethyl-4-hydroxy-5-(hydroxymethyl)tetrahydrofuran-2-yl)pyrimidine-2,4(1H,3H)-dione] returned an IC50 of 7.21 µM.

As to `CC[C@]1(CO)O[C@@H](n2cc(OC)c(=O)[nH]c2=O)C[C@@H]1O` [Cpd. No. 103, 1-((2R,4S,5R)-5-ethyl-4-hydroxy-5-(hydroxymethyl)tetrahydrofuran-2-yl)-5-methoxypyrimidine-2,4(1H,3H)-dione], the concentration for half-maximal inhibition (IC50) is above 12.5 µM.

In turn, `C#C[C@@]1(CO)C=C[C@H](n2cc(OC(F)F)c(=O)[nH]c2=O)O1` [compound 57, 5-(difluoromethoxy)-1-((2R,5R)-5-ethynyl-5-(hydroxymethyl)-2,5-dihydrofuran-2-yl)pyrimidine-2,4(1H,3H)-dione] yielded a half-inhibitory concentration (IC50) above 50 µM.

Turning to `C=C[C@]1(CO)O[C@@H](n2cc(C)c(=O)[nH]c2=O)C[C@H]1O` [compound 25, 1-((2R,4R,5R)-4-hydroxy-5-(hydroxymethyl)-5-vinyltetrahydrofuran-2-yl)-5-methylpyrimidine-2,4(1H,3H)-dione], the IC50 was above 50 µM.

Take `C=C[C@]1(CO)O[C@H](n2cc(Br)c(=O)[nH]c2=O)C[C@@H]1O` [compound 65, 5-bromo-1-((2S,4S,5R)-4-hydroxy-5-(hydroxymethyl)-5-vinyltetrahydrofuran-2-yl)pyrimidine-2,4(1H,3H)-dione]: the half-inhibitory concentration (IC50) is 21.9 µM.

`C#C[C@@]1(CO)C=C[C@H](n2cnc3cncnc32)O1` [compound 38, ((2R,5R)-2-ethynyl-5-(9H-purin-9-yl)-2,5-dihydrofuran-2-yl)methanol] returned an IC50 above 50 µM.

Take `C=C[C@]1(CO)O[C@@H](n2cc(F)c(N)nc2=O)C[C@@H]1O` [Cpd. No. 8, 4-amino-5-fluoro-1-((2R,4S,5R)-4-hydroxy-5-(hydroxymethyl)-5-vinyltetrahydrofuran-2-yl)pyrimidin-2(1H)-one]: the midpoint of inhibition, the IC50, lay at 0.009 µM.

Turning to `C#C[C@]1(CO)O[C@H](n2cnc3c(NC4CC4)nc(N)nc32)C[C@@H]1O` [compound 83, (2R,3S,5S)-5-(2-amino-6-(cyclopropylamino)-9H-purin-9-yl)-2-ethynyl-2-(hydroxymethyl)tetrahydrofuran-3-ol], the half-inhibitory concentration (IC50) was determined as 0.429 µM.

`C#C[C@]1(CO)OC(n2cc(Br)c(N)nc2=O)C[C@@H]1O` (stereo partly drawn) [compound 60, 4-amino-5-bromo-1-((4S,5R)-5-ethynyl-4-hydroxy-5-(hydroxymethyl)tetrahydrofuran-2-yl)pyrimidin-2(1H)-one] showed an IC50 of 5.65 µM.

In the case of `C#C[C@]1(CO)OC(n2cc(C)c(N)nc2=O)C[C@@H]1O` (stereo partly drawn) [compound 46, 4-amino-1-((4S,5R)-5-ethynyl-4-hydroxy-5-(hydroxymethyl)tetrahydrofuran-2-yl)-5-methylpyrimidin-2(1H)-one], the IC50 was above 50 µM.

Consider `C#C[C@]1(CO)O[C@@H](n2nc(C)c3c(N)nc(F)nc32)C[C@@H]1O` [Cpd. No. 75, (2R,3S,5R)-5-(4-amino-6-fluoro-3-methyl-1H-pyrazolo[3,4-d]pyrimidin-1-yl)-2-ethynyl-2-(hydroxymethyl)tetrahydrofuran-3-ol], for which the IC50 was above 50 µM.

In the case of `C[C@]1(CO)O[C@@H](n2ccc(N)nc2=O)[C@H](O)[C@@H]1O` [compound 198, 4-amino-1-((2R,3R,4S,5R)-3,4-dihydroxy-5-(hydroxymethyl)-5-methyltetrahydrofuran-2-yl)pyrimidin-2(1H)-one], the IC50 is above 50 µM.

The compound `Cc1cn([C@H]2C[C@@H](O)[C@@](C)(CO)O2)c(=O)[nH]c1=O` [compound 23, 1-((2R,4R,5R)-4-hydroxy-5-(hydroxymethyl)-5-methyltetrahydrofuran-2-yl)-5-methylpyrimidine-2,4(1H,3H)-dione] gave an IC50 above 50 µM.

As for `C#C[C@]1(CO)O[C@@H](n2cnc3c(N)nc(F)nc32)[C@H](F)[C@@H]1O` [compound 13, (2R,3R,4R,5R)-5-(6-amino-2-fluoro-9H-purin-9-yl)-2-ethynyl-4-fluoro-2-(hydroxymethyl)tetrahydrofuran-3-ol], it took 370 µM to reach half-maximal inhibition (IC50).

As for `C=C[C@]1(CO)O[C@@H](n2cc(Br)c(=O)[nH]c2=O)C[C@@H]1O` [Cpd. No. 64, 5-bromo-1-((2R,4S,5R)-4-hydroxy-5-(hydroxymethyl)-5-vinyltetrahydrofuran-2-yl)pyrimidine-2,4(1H,3H)-dione], the IC50 turned out to be 9.93 µM.

Take `C#C[C@]1(CO)O[C@H](n2cc(Br)c(=O)[nH]c2=O)C[C@@H]1O` [compound 53, 5-bromo-1-((2S,4S,SR)-5-ethynyl-4-hydroxy-5-(hydroxymethyl)tetrahydrofuran-2-yl)pyrimidine-2,4(1H,3H)-dione]: the IC50 was above 50 µM.

The same test, now with this note: Human LINE-1 activity inhibition; HeLa cells, reporter plasmid pYX017, Firefly/Renilla, 72 h incubation.
Compound `CC[C@]1(CO)O[C@@H](n2cnc3c(N)nc(Cl)nc32)[C@@H](F)[C@@H]1O` [compound 182, (2R,3R,4S,5R)-5-(6-amino-2-chloro-9H-purin-9-yl)-2-ethyl-4-fluoro-2-(hydroxymethyl)tetrahydrofuran-3-ol] displayed an IC50 of 293 µM.

`C#C[C@@]1(CO)C=C[C@H](n2cc(F)c(=O)[nH]c2=O)O1` [compound 22, 1-((5R)-5-ethynyl-5-(hydroxymethyl)-2,5-dihydrofuran-2-yl)-5-fluoropyrimidine-2,4(1H,3H)-dione] came in with an IC50 of 20.1 µM.

The values are drawn from US20260035403A1, “NUCLEOSIDE LINE-1 INHIBITORS” (TRANSPOSON THERAPEUTICS, INC., priority 2022, published 2026).
